# Measured values from the supplement of paper PMC10307832.
# Compound: Cc1ccccc1C(C(=O)NC1CCCCC1)N(C(=O)Cn1ccnc1C)c1cccc(F)c1 [IDH-C35] + CS(=O)(=O)N1CCN(Cc2cc3nc(-c4cccc5[nH]ncc45)nc(N4CCOCC4)c3s2)CC1 [Pictilisib] (partner 1 µM)
# Assay: relative viability (nuclei count vs DMSO), 5 days (fraction); higher = more cells survive
# Conditions: first compound 0.8 µM
# How it was run: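 Relative viability divides the nuclei count in treated wells by that in vehicle wells. Lung cancer cell lines were seeded in 1536-well plates, dosed by pin tool the next day, and fixed and stained after 5 days in one step with final 0.05% Triton X-100, 1% formaldehyde and 1 ug/ml Hoechst. Dosing was a single drug or a fixed anchor-drug dose plus five library-drug doses (not always all listed) in √10 steps, and values are medians of duplicate plates imaged at 4×.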
row,Cell Line,relative viability
1,NCI-H2009,0.907
2,NCI-H661,0.404
3,SK-LU-1,0.641
4,NCI-H1299,0.96
5,CAL-12T,0.559
6,NCI-H2228,0.421
7,NCI-H2023,0.245
8,NCI-H1563,0.662

# Same assay, conditions: first compound 2.53 µM
row,Cell Line,relative viability
1,NCI-H727,0.441
2,NCI-H1650,0.4
3,EBC-1,0.353
4,NCI-H1703,0.262
5,NCI-H1993,0.743
6,SW 1573,0.59
7,NCI-H838,0.508
8,LCLC-103H,0.715
9,NCI-H520,0.238
10,NCI-H2126,0.507
11,EMC-BAC-2,0.487
12,NCI-H2085,0.49
13,Calu-6,0.877
14,HCC-366,0.151
15,NCI-H1666,0.622
16,NCI-H596,0.537
17,LK-2,0.496
18,NCI-H2087,0.984

row,Cell Line,relative viability
1,SK-MES-1,0.343
2,H3255,0.503
3,COR-L23,0.79
4,COR-L 105,0.383
5,IA-LM,0.325
6,LOU-NH91,0.496
7,ChaGo-K-1,0.681
8,NCI-H2170,0.342
9,A549,0.472
10,NCI-H2009,0.709
11,NCI-H661,0.534
12,SK-LU-1,0.606
13,NCI-H1299,0.759
14,CAL-12T,0.339
15,NCI-H2228,0.486
16,NCI-H2023,0.229
17,NCI-H1563,0.619

# Same assay, conditions: first compound 8 µM
row,Cell Line,relative viability
1,NCI-H727,0.43
2,NCI-H1650,0.511
3,EBC-1,0.377
4,NCI-H1703,0.206
5,NCI-H1993,0.712
6,SW 1573,0.476
7,NCI-H838,0.423
8,LCLC-103H,0.603
9,NCI-H520,0.317
10,NCI-H2126,0.472
11,EMC-BAC-2,0.521
12,NCI-H2085,0.442
13,Calu-6,0.898
14,HCC-366,0.178
15,NCI-H1666,0.426
16,NCI-H596,0.384
17,LK-2,0.565
18,NCI-H2087,0.886

row,Cell Line,relative viability
1,SK-MES-1,0.295
2,H3255,0.424
3,COR-L23,0.833
4,COR-L 105,0.392
5,IA-LM,0.322
6,LOU-NH91,0.531
7,ChaGo-K-1,0.918
8,NCI-H2170,0.336
9,A549,0.401
10,NCI-H2009,0.8
11,NCI-H661,0.427
12,SK-LU-1,0.63
13,NCI-H1299,0.745
14,CAL-12T,0.608
15,NCI-H2228,0.457
16,NCI-H2023,0.233
17,NCI-H1563,0.619
